Laboratory results from patent US10562893B2, “Benzimidazoles derivatives as Tec kinases family inhibitors” (GB005, Inc., priority 2015, dated 2020).

Columns and labels:
[1] = tested on: Jurkat human acute T cell leukemia cells; assay: Jurkat IL-2 release assay; type: cell-based; settings: IL-2 release from Jurkat cells stimulated with anti-CD3 and anti-CD28, 48 hours, ELISA
Method: Inhibition of cellular ITK was assessed by measuring release of IL-2 following stimulation with anti-CD3 and anti-CD28 antibodies. Individual wells of 96 well tissue culture plates were coated with 50 μL of 10 μg/mL anti-CD3 (OKT3, eBiosciences) for 2 hours at 37° C. Jurkat human acute T cell leukemia cells (ATCC) were plated in 96-well plates at a final concentration of 9.2×10e5 cells/mL in complete media (RPMI, 10% FBS, 1.5 g/L sodium bicarbonate, 10 mM Hepes, 1 mM sodium pyruvate, 4.5 g/L glucose) and pre-treated with compound curves for 30 minutes at 37° C., 5% CO2. Pre-treated cells plus compounds were transferred to washed anti-CD3 coated plates. Soluble anti-CD28 (CD28.2 eBiosciences) was added to each well at a final concentration of 1 μg/mL. The cells were placed in a humidified 37° C. incubator with 5% CO2 for 48 hours and IL-2 release was measured using a commercial ELISA (BD Bioscience catalog #555190). Controls included unstimulated cells and vehicle alone. EC50 values (50% IL-2 release in the presence of compound as compared to vehicle treated controls) were calculated from dose response compound curves using GraphPad Prism Software.

Human PBMCs = assay: CD3/CD28 mediated PBMC proliferation assay; type: cell-based; settings: proliferation of human PBMCs stimulated with anti-CD3 and anti-CD28, 72 hours, Cell Titer-Glo
Method: Inhibition of cellular ITK was assessed by measuring proliferation of PBMCs following stimulation with anti-CD3 and anti-CD28 antibodies. Individual wells of 96 well tissue culture plates were coated with 50 μL of 5 μg/mL anti-CD3 (OKT3, eBiosciences) for 2 hours at 37° C. Human PBMCs (Stemcell Technologies catalog #70025.3) were plated in 96-well plates at a final concentration of 9.2×10e5 cells/mL in complete media (RPMI, 10% heat inactivated FBS, 55 uM β-mercaptoethanol) and pre-treated with compound curves for 30 minutes at 37° C., 5% CO2. Pre-treated cells plus compounds were transferred to washed anti-CD3 coated plates. Soluble anti-CD28 (CD28.2 eBiosciences) was added to each well at a final concentration of 2 μg/mL. The cells were placed in a humidified 37° C. incubator with 5% CO2 for 72 hours and metabolic viability was measured by quantification of ATP levels with Cell Titer-Glo (Promega catalog # G9242). Controls included unstimulated cells and vehicle alone. EC50 values (50% proliferation in the presence of compound as compared to vehicle treated controls) were calculated from dose response compound curves using GraphPad Prism Software.

RLK/TXK = RLK/TXK (Homo sapiens (Human), UniProt P42681); assay: RLK/TXK kinase inhibition assay; type: biochemical; settings: micro-fluidic detection, 3 hours at 25° C.
RLK/TXK, sequence (P42681 whole entry): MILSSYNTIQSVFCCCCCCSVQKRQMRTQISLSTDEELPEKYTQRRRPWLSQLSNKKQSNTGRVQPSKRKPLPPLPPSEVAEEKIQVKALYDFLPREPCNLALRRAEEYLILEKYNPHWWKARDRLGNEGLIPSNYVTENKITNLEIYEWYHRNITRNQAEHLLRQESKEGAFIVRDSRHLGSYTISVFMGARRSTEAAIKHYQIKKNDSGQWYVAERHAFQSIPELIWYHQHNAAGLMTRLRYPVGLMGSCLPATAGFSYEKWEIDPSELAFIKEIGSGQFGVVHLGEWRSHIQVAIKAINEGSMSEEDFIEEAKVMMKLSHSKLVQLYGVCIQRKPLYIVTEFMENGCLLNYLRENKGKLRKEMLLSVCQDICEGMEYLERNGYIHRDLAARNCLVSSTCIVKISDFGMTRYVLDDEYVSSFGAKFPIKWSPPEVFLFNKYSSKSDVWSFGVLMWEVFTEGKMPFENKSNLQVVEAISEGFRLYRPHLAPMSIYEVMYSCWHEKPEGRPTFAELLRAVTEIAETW
Method: (§1) The in vitro kinase assays were performed at Nanosyn utilizing micro-fluidic detection technology. The test compounds were serially pre-diluted in DMSO and added, by the acoustic dispensing (Labcyte® 550), directly to 384well assay plates into 10 uL of a buffer with enzyme comprising: 100 mM HEPES, pH7.5, 5 mM MgCl2, 0.1% bovine serum albumin, 1 mM DTT, 0.01% Triton X-100 and the enzyme. Final DMSO concentration was maintained at 1% in all samples, including the controls. The reactions were initiated by addition of ATP (to the specified concentration) and the fluorescently labeled peptide substrate to a final concentration of 1 uM, and incubated for 3 hours at 25° C. Following incubation, the reactions were quenched by addition of 40 μL of termination buffer (100 mM HEPES, pH7.5, 0.01% Triton X-100, 50 mM EDTA). Terminated plates were analyzed using Caliper LabChip® 3000 microfluidic electrophoresis instrument (Caliper Life Sciences/Perkin Elmer). The enzymatic modification of the peptide substrate (phosphorylation) results in a change of net charge enabling electrophoretic separation of product from substrate. As substrate and product are separated by electrophoresis, two peaks of fluorescence are observed. Change in the relative fluorescence intensity of the substrate and product peaks was the parameter measured, reflecting enzyme activity. In the presence of inhibitor, the ratio between product and substrate is altered: signal of the product decreases, while the signal of the substrate increases. Activity in each test sample was determined as the product to sum ratio (PSR): P/(S+P), where P is the peak height of the product and S is the peak height of the […]. For each compound, enzyme activity was measured at 12 concentrations spaced by 3× dilution intervals. Negative control samples (0%-inhibition in the absence of inhibitor, DMSO only) and positive control samples (100%-inhibition, in the absence of enzyme or in the presence of control inhibitor) were assembled in replicates of four and were used to calculate %-inhibition values in the presence of compounds. Percent inhibition (Pinh) was determined using the following equation: Pinh=(PSR0%−PSRinh)/(PSR0%−PSR100%)*100, where PSRinh is the product sum ratio in the presence of inhibitor, PSR0% is the product sum ratio in the absence of inhibitor and PSR100% is the product sum ratio in 100%-inhibition control samples. To determine IC50 values, the inhibition curves (Pinh versus inhibitor concentration) were fitted by 4 parameter sigmoid dose-response model using XLfit software (IDBS).

ITK = ITK (Homo sapiens (Human), UniProt Q08881); assay: ITK kinase inhibition assay; type: biochemical; settings: micro-fluidic detection, 3 hours at 25° C.
ITK, sequence (Q08881 whole entry): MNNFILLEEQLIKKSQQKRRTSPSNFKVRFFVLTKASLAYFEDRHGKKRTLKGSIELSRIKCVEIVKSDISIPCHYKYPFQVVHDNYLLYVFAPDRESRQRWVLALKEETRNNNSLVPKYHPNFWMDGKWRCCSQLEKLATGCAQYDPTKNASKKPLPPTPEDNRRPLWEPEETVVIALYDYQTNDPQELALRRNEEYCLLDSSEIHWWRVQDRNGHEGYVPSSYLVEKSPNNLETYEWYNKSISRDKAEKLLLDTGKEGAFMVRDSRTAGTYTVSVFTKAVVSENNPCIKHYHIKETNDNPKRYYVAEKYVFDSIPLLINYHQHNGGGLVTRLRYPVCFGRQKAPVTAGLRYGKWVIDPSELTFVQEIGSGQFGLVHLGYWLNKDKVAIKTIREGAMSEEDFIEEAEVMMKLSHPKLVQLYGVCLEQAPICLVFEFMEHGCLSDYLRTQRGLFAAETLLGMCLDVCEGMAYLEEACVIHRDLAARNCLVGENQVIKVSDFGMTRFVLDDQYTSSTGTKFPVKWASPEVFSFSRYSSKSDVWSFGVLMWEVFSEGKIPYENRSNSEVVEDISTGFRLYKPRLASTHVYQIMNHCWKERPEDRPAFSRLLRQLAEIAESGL
Method: as §1, with “384 well” for “384well”, “(PSR):P/(S+P),” for “(PSR): P/(S+P),”

Row | EC50 [1] [nM] | EC50 (RLK/TXK) [nM] | EC50 (ITK) [nM] | Structure (SMILES) | EC50 (Human PBMCs) [nM]
1 | > 100 | < 10 | < 10 | C=CC(=O)Nc1cccc(-n2c(NC(=O)c3ccc(C#N)cc3)nc3cc(CN[C@@H](C)C(C)(C)C)ccc32)c1 [Compound 11] | 10 to 100
2 | < 10 | 10 to 100 | < 10 | C=CC(=O)N[C@@H]1CCC[C@H](n2c(NC(=O)c3ccc(C(F)F)s3)nc3cc(CN[C@@H](C)C(C)(C)C)ccc32)C1 [Compound 81] | 10 to 100
3 | 10 to 100 | 10 to 100 | 10 to 100 | C=CC(=O)N[C@H]1CC[C@@H](n2c(NC(=O)c3ccc(C(F)F)s3)nc3cc(CN[C@@H](C)C(C)(C)C)ccc32)CC1 [Compound 3] | > 100
4 | < 10 | < 10 | < 10 | C=CC(=O)Nc1cccc(-n2c(NC(=O)c3ccc(C(F)F)s3)nc3cc(CN4CCOCC4)ccc32)c1 [Compound 50] | < 10
